Measurements published in US20090196912A1, “Pyridinylamines” (GPC Botech AG, priority 2004, published 2009).

Tests used:
Test in all cases: Generic kinase assay (33P-ATP, Myelin Basic Protein)
Format in all cases: biochemical
PDGFR = details: class symbol: % inhibition at 10 μM or IC50
Method in brief: (§1)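 Myelin basic protein was phosphorylated with [γ-33P]ATP plus unlabelled ATP (4 µM in the three-fold concentrated mix) in Tris-HCl pH 7.5, MgCl2 and DTT. Kinase was titrated to about 10% ATP turnover, and reactions ran 1 h at room temperature before EDTA stop. Incorporated 33P was captured on filter plates washed with 0.75% H3PO4 and counted by scintillation.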

cRaf = cRaf (Homo sapiens, UniProt P04049); details: 1 h; class symbol: % inhibition at 10 μM or IC50; read-out: Inhibitory effect on target cRaf
Method in brief: as §1

c-kit = c-kit (Homo sapiens, UniProt P10721); details: 1 h; class symbol: % inhibition at 10 μM or IC50; read-out: Inhibitory effect on target c-kit
Method in brief: as §1

EGFR = EGFR (Homo sapiens, UniProt P00533); details: class symbol: % inhibition at 10 μM or IC50
Method in brief: as §1

Abl = Abl (Homo sapiens, UniProt P00519); details: 1 h; class symbol: % inhibition at 10 μM or IC50; read-out: Inhibitory effect on target Abl
Method in brief: as §1

p56Lck = p56Lck (Homo sapiens, UniProt P06239); details: 1 h; class symbol: % inhibition at 10 μM or IC50; read-out: Inhibitory effect on target p56Lck
Method in brief: as §1

RICK = RICK (Homo sapiens, UniProt O43353); details: class symbol: % inhibition at 10 μM or IC50
Method in brief: as §1

p38 = p38 (Homo sapiens, UniProt Q16539); details: class symbol: % inhibition at 10 μM or IC50
Method in brief: as §1

GSK-3beta = GSK-3beta (Homo sapiens, UniProt P49841); details: class symbol: % inhibition at 10 μM or IC50
Method in brief: as §1

CDK2/CyclinA = CDK2/CyclinA (Homo sapiens, UniProt P24941); details: class symbol: % inhibition at 10 μM or IC50
Method in brief: as §1

ROCK 2 = ROCK 2 (Homo sapiens, UniProt O75116); details: class symbol: % inhibition at 10 μM or IC50
Method in brief: as §1

UL97 = UL97 (Human cytomegalovirus, UniProt P16788); details: class symbol: % inhibition at 10 μM or IC50
Method in brief: as §1

RIP = target: T1, RIP (Homo sapiens, UniProt Q13546); details: class symbol: % inhibition at 10 μM or IC50
T1 sequence (Q13546 1-671): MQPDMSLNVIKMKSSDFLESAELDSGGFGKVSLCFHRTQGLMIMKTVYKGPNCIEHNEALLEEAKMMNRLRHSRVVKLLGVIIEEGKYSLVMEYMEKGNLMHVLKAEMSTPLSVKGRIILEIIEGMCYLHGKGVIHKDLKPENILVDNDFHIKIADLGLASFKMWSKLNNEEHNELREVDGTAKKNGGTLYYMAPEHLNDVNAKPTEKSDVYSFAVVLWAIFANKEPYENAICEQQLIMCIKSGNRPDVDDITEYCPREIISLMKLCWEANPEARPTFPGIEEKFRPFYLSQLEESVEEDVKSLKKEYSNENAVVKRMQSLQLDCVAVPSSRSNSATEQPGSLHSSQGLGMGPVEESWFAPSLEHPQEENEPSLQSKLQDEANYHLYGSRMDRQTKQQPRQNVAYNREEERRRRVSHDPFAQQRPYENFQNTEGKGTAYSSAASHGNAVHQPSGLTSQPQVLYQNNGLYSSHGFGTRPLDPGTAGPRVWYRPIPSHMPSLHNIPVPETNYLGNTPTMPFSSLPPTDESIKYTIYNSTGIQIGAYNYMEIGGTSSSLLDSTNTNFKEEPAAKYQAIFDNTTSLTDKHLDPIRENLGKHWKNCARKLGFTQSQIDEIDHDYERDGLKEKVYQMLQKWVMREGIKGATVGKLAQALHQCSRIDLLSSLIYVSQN
Method in brief: as §1

Chain of RICK (O43353 whole entry, species assumed): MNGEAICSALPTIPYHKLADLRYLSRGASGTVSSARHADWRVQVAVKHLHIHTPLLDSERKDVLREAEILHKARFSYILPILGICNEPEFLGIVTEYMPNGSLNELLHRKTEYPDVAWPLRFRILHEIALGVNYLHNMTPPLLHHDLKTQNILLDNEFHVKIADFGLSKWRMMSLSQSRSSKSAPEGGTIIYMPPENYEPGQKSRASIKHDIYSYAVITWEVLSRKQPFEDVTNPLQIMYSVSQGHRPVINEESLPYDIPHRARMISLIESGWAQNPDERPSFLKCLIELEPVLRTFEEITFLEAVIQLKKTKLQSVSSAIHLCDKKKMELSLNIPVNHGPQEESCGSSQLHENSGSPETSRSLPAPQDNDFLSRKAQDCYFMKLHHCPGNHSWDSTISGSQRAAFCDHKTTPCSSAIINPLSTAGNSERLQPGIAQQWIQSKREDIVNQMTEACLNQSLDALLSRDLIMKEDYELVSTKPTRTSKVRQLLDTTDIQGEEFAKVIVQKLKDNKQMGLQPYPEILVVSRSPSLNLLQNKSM
Chain of ROCK 2 (O75116 whole entry, species assumed): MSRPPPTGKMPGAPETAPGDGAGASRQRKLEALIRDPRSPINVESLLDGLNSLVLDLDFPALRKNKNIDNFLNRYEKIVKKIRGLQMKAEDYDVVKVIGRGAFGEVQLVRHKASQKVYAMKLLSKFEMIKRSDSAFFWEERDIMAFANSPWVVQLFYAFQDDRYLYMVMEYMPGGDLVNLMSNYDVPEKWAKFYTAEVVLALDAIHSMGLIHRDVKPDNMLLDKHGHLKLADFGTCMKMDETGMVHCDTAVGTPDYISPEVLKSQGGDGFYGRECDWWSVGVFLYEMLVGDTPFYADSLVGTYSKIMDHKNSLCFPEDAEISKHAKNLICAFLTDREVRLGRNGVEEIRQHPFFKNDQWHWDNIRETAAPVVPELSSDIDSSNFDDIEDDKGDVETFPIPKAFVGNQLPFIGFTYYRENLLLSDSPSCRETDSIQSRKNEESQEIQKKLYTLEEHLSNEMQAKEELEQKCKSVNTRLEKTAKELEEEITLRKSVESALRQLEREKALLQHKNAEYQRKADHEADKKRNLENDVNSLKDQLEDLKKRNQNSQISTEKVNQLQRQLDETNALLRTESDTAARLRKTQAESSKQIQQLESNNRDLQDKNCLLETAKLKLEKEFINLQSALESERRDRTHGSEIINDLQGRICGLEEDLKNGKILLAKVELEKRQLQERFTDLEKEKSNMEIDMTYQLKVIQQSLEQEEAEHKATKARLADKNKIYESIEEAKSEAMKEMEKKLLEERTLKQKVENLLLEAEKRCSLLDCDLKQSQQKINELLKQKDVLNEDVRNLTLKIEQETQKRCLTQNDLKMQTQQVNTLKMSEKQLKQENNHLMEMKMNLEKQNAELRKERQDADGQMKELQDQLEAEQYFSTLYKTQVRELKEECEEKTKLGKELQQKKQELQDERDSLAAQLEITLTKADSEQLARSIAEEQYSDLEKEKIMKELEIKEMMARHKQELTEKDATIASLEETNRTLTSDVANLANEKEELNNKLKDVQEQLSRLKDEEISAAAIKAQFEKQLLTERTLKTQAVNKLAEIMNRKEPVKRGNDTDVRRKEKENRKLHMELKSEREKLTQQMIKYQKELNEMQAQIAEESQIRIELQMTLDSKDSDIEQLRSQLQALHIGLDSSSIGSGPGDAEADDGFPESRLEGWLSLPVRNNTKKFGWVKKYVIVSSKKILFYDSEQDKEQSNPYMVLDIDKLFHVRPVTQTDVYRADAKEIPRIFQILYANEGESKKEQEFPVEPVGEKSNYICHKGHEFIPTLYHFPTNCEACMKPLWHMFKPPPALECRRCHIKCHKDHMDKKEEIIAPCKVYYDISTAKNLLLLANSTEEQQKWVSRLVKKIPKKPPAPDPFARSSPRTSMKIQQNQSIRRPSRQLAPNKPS
Chain of c-kit (P10721 26-976): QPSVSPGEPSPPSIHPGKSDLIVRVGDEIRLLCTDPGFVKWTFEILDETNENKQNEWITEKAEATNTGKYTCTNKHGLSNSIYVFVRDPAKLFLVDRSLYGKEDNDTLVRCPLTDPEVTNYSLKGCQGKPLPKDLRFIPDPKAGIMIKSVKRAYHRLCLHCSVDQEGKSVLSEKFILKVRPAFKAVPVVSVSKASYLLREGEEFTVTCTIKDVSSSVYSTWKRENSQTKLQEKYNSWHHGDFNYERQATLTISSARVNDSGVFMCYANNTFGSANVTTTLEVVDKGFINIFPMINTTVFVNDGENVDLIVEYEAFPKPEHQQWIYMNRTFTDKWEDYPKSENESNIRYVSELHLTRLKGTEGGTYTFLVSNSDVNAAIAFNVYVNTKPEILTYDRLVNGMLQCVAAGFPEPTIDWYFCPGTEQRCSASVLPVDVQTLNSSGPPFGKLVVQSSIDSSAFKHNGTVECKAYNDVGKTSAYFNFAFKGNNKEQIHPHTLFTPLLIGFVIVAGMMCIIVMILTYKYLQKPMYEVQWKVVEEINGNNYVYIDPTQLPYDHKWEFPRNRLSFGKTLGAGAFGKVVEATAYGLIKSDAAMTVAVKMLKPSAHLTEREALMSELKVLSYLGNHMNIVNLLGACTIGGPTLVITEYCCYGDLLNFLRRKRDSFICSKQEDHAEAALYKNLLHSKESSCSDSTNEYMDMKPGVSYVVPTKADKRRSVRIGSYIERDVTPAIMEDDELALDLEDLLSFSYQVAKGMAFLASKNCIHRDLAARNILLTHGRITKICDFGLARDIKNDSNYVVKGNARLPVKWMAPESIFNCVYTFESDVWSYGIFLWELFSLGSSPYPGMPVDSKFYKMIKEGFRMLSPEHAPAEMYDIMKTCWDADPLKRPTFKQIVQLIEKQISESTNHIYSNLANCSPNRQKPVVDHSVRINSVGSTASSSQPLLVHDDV
Chain of p56Lck (P06239 whole entry, species assumed): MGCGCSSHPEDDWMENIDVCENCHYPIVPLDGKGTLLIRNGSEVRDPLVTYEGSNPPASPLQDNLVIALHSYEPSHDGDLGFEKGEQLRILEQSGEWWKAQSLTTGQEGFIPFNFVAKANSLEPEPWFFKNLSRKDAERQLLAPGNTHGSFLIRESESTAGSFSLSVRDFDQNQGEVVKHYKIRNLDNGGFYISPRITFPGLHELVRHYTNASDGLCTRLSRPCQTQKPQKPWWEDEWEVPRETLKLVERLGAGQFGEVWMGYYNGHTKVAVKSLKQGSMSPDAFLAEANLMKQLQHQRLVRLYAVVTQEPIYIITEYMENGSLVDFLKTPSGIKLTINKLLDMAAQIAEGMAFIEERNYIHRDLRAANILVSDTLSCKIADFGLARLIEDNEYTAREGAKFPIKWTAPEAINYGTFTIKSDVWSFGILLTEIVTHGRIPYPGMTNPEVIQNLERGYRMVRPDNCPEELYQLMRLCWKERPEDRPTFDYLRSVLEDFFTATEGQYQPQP
Chain of cRaf (P04049 whole entry, species assumed): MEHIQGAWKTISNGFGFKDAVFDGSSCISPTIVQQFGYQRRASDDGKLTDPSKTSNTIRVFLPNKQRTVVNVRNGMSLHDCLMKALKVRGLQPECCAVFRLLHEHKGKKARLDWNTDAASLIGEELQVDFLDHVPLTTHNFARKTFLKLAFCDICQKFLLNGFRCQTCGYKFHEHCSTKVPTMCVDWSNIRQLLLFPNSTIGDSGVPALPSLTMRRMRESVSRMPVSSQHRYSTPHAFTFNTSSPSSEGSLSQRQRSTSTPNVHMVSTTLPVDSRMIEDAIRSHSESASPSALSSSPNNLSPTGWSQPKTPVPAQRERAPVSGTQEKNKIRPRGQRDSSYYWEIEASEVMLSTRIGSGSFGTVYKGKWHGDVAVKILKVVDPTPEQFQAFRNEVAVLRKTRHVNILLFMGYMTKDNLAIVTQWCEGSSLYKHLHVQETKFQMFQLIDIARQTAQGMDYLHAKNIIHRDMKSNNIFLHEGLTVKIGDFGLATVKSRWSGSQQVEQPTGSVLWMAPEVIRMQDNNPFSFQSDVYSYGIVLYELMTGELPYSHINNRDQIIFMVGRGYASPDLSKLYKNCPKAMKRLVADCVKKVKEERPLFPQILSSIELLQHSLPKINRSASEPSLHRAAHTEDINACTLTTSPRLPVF
Chain of p38 (Q16539 whole entry): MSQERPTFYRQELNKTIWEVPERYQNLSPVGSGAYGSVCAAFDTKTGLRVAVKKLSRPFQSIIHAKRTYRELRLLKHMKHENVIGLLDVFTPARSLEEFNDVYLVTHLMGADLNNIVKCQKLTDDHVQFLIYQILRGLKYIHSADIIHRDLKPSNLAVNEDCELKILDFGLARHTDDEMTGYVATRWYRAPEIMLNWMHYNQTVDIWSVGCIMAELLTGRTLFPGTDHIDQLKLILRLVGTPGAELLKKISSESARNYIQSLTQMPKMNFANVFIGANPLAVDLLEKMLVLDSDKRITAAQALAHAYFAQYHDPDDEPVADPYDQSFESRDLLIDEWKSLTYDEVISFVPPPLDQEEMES
Chain of GSK-3beta (P49841 whole entry, species assumed): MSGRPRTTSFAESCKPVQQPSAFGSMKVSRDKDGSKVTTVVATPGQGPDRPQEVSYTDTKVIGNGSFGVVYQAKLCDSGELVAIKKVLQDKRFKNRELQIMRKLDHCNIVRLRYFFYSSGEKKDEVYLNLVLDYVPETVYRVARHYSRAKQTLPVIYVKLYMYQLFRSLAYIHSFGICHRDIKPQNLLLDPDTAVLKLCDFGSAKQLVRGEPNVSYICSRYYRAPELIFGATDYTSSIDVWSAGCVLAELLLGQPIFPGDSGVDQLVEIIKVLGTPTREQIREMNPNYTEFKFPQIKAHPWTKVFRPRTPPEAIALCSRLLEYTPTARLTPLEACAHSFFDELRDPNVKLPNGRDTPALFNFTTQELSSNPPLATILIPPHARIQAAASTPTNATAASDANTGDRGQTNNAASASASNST

SMILES | Inhibitory effect on target PDGFR (PDGFR) | inhibition at 10 µM (cRaf) | inhibition at 10 µM (c-kit) | Inhibitory effect on target EGFR (EGFR) | inhibition at 10 µM (Abl) | inhibition at 10 µM (p56Lck) | Inhibitory effect on target RICK (RICK) | Inhibitory effect on target p38 (p38) | Inhibitory effect on target GSK-3beta (GSK-3beta) | Inhibitory effect on target CDK2/CyclinA (CDK2/CyclinA) | Inhibitory effect on target ROCK 2 (ROCK 2) | Inhibitory effect on target UL97 (UL97) | inhibition at 10 µM (ROCK 2; 1 h, read-out: Inhibitory effect on target ROCK 2) | Inhibitory effect on target RIP (RIP) | inhibition at 10 µM (RICK; 1 h, read-out: Inhibitory effect on target RICK)
CC(=O)Nc1cccc(-c2cncc(NCc3cccc(O)c3)c2)c1 [Compound 221, N-{3-[5-(3-Hydroxy-benzylamino)-pyridin-3-yl]-phenyl}-acetamide] | A (A: 50-90% inhibition at 10 μM enzyme concentration) | 50 to 90% | > 90% | A (A: 50-90% inhibition at 10 μM enzyme concentration) | 50 to 90% | > 90% | C (C: IC50 measured: <1 μM) | A (A: 50-90% inhibition at 10 μM enzyme concentration) | – | – | – | – | – | – | –
Oc1ccc(-c2cncc(NCc3cccc(O)c3)c2)cc1 [Compound 212, 3-{[5-(4-Hydroxy-phenyl)-pyridin-3-ylamino]-methyl}-phenol] | A (A: 50-90% inhibition at 10 μM enzyme concentration) | 50 to 90% | > 90% | A (A: 50-90% inhibition at 10 μM enzyme concentration) | 50 to 90% | > 90% | C (C: IC50 measured: <1 μM) | – | A (A: 50-90% inhibition at 10 μM enzyme concentration) | B (B: >90% inhibition at 10 μM enzyme concentration) | C (C: IC50 measured: <1 μM) | – | – | – | –
CN(Cc1cccc(O)c1)c1cncc(-c2cccc(O)c2)c1 [Compound 241, 3-{5-[(3-Hydroxy-benzyl)-methyl-amino]-pyridin-3-yl}-phenol] | – | – | – | – | – | – | C (C: IC50 measured: <1 μM) | – | – | – | – | C (C: IC50 measured: <1 μM) | 50 to 90% | – | –
Clc1cccc(Nc2cncc(-c3ccncc3)c2)c1 [Compound 166, [3,4′]Bipyridinyl-5-yl-(3-chloro-phenyl)-amine] | – | – | – | – | – | – | – | – | – | – | – | – | – | A (A: 50-90% inhibition at 10 μM enzyme concentration) | 50 to 90%
